In a melting point compilation (Tetko et al.; mined from patent text by program, amines drawn as free bases though some values may be those of a salt) one finds melting point data, which are given here for 88 molecules.

For orientation: melting point means the temperature, or range, at which the solid turns liquid.

Where only a bound is given, the exact number is not on record here.

The molecule `Cc1ccc(S(=O)(=O)NCc2ccc(C(=O)CBr)cc2)cc1` gave a melting point of 116 to 117 °C.
The result for `COC(=O)c1ccc(CC#N)cc1S(=O)(=O)NC(C)(C)C` reads 86 to 88 °C; that for `Cc1c2c(c(Cc3ccc(C(C)C)cc3)c(C)c1NC(=O)NCCO)OCC2`, 176 to 177 °C; that for `COc1ccc(Nc2ccc(OCc3ccccc3)cc2)c(C(=O)O)c1`, 167 to 168 °C.
The result for `COc1cc2nc(-c3cccs3)cc(C(=O)O)c2cc1OC` reads 260 to 263 °C; that for `O=C1Nc2cc(CN3CCN(c4ccc(C(=O)N5CCCC5)cc4)CC3)cnc2N2CCC[C@@H]12`, 121 °C.
The result for `CC(C)c1ccc2c(c1)c(Sc1ccccc1)c(C(C)C(=O)O)n2Cc1ccc(Cl)cc1` (stereo not drawn) reads 181 to 182 °C; that for `O=S(=O)(Nc1ccc(Cl)cc1C(=NOc1ccc(Cl)cc1)c1ccccc1)C(F)(F)F`, 86 to 87 °C.
Regarding `CSc1snc(OCC#CI)c1C#N`, the melting point was in the range of 145 to 146 °C.
To `CC1CN(c2c(F)cc3c(=O)c(C(=O)O)cn(C4CC4)c3c2Cl)CC1CN` (stereo not drawn) belongs 235 to 238 °C.
For the molecule `CCc1ccc2c(c1)CC(=O)N2`, the melting point lay within 136 to 137 °C.
In the case of `CC(=O)Nc1cc(N(C)C)ccc1C(=O)c1ccccc1C(=O)O`, the melting point lay in the range of 174 to 181 °C.
The result for `CN1C(=O)CCC2=C1CCc1c(F)cccc12` reads 137 to 138 °C.
To `O=C(OCC1OC(OCc2ccccc2)C(OCc2ccccc2)C(OCc2ccccc2)C1OCc1ccccc1)c1ncc[nH]1` (stereo not drawn) belongs 105 to 108 °C.
The molecule `O=C(OCc1ccccc1)c1ccc(OCc2cccc(COc3ccc(C(=O)OCc4ccccc4)cc3Cl)c2)c(Cl)c1` had a melting point of 95.8 to 97 °C.
To `OCC(O)COc1ccc(-c2nc(-c3cccs3)c[nH]2)cc1` (stereo not drawn) belongs 197 to 200 °C.
To `Cn1c(=O)c2cnc(N)nc2n(-c2ccccc2)c1=O` belongs over 300 °C.
To `COc1ccc(-c2c3c(cc4ccc(OC)cc24)C(=O)NC3=O)cc1` belongs 290 to 292 °C.
In turn, `COC(=O)c1ccc2c(c1)N(C(C)C)C(=O)C(C)(C)O2` registered a melting point of 75 to 77 °C.
The result for `CC(Oc1ncn(-c2cccc(Br)c2)n1)C(=O)N1CCCC1` (stereo not drawn) reads 111 to 113 °C.
As to `COC(=O)C(C)NC(=O)Cc1cc(C)c(C(=O)c2ccc(Cl)cc2)n1C` (stereo not drawn), the melting point lay in the range of 163 to 165 °C.
Consider `CC(C(=O)O)c1ccc2c(c1)C(=O)Cc1ccccc1O2` (stereo not drawn), for which the melting point fell in the range of 152 to 154 °C.
To `COc1cc(OC)c2c(=O)[nH]c(-c3cc(C)c(OCCO)c(C)c3)nc2n1` belongs 255 to 256 °C; to `CCOC(=O)c1cn([C@@H](C)CO)c2c(F)c(N3CCN(C)CC3)c(F)cc2c1=O`, 195 to 197 °C.
Molecule `COC(=O)c1[nH]c2c(OCc3ccccc3)cc([N+](=O)[O-])c(CCCl)c2c1C(=O)OC` gave a melting point of 122 to 128 °C.
Turning to `Cc1ccc(-c2ncccc2OC2SCC(O)C(O)C2O)o1` (stereo not drawn), the melting point is 191 °C.
The result for `CN(Cc1cc(C(F)(F)F)cc(C(F)(F)F)c1)C(=O)c1c(-c2ccccc2C(F)(F)F)c2ccccc2c(=O)n1C` reads 159 to 160 °C; that for `Cc1ccc(N2CN(C)CNC2=S)cc1`, 176 to 178 °C.
`CCCNC(=O)C(C)(C)Oc1ccc(-c2ccc(N3CCCCC3)cc2)cc1` registered a melting point of 132 to 134 °C.
The result for `CC(C)=CCc1c(O)ccc(C(=O)C=Cc2ccccc2)c1O` reads 131 to 132 °C; that for `CCCCCCOc1ccc(CCCCCCCCC(=O)N(C)O)cc1`, 59 to 61 °C.
The result for `O=C(Nc1c(F)cc(F)cc1F)N(Cc1ccc2c(c1)Cc1ccccc1-2)C1CCCCC1` reads 162 to 165 °C; that for `CCOC(=O)Cc1c(SC)c2cc(F)ccc2n1Cc1ccc(Cl)cc1`, 118 to 119 °C; that for `CN1C[C@H](CN2CCC(O)(c3ccc(Cl)cc3)CC2)C=C2c3cccc4c3c(cn4C)C[C@H]21`, 101 to 107 °C.
The result for `N#CSc1nc(Nc2ccc(Cl)cc2)ncc1[N+](=O)[O-]` reads 240 to 242 °C.
Consider `O=S(=O)(NCCNCC=Cc1ccc(Cl)cc1)c1cccc2cnccc12`, for which the melting point is 120 to 123 °C.
`NC(=O)CCc1ccc([N+](=O)[O-])cc1` registered a melting point of 177 to 178 °C.
The result for `CC1(C)Oc2ccc3nc(C#N)ccc3c2C(NCCc2ccccc2)C1O` (stereo not drawn) reads 93 to 96 °C.
In turn, `O=[N+]([O-])c1cc(OCC2=CCCSC2)c(Cl)cc1F` had a melting point of 91 to 94 °C.
Regarding `CCCCCCCCCCCCCCCCOCC(O)CN1CCC(C#N)(c2ccccc2)CC1` (stereo not drawn), the melting point was 69 to 70 °C.
The result for `CCC(C)(C)c1ccc(OCCCNC(=O)c2cc(N=C=S)c3ccccc3c2O)c(C(C)(C)CC)c1` reads 91 to 94 °C; that for `CCc1c(C(=O)NN2CCCCC2)nc(-c2ccccc2Cl)n1-c1ccc(Cl)cn1`, 217 to 219 °C.
The result for `CSc1ccc(/C=C/c2nc3ccccc3n2-c2ccccn2)cc1` reads 140 to 141 °C.
To `O=S1(=O)N(CCN2CCN(c3ccc(F)cc3)CC2)c2cccc3c2N1CCC3` belongs 118 °C.
Molecule `CCOC(=O)Cc1cnc2c(NC(=O)c3c(Cl)cccc3Cl)cccc2c1` came in with a melting point of 151 °C.
The result for `O=C(CCl)c1cccn1C(c1ccccc1)c1ccccc1F` (stereo not drawn) reads 86 to 91 °C.
With `Cc1nc(Br)n(C)c1-c1nc(C2CC2)no1`, the melting point amounted to 81 °C.
Turning to `O=S(=O)(Br)c1ccc(Cl)s1`, the melting point was in the range of 35 to 37 °C.
The result for `COc1cccc2c(CCNC3COc4c(F)ccc(C(N)=O)c4C3)coc12` (stereo not drawn) reads 172 to 174 °C.
To `CC=CCn1c(C)c(C)c2cnnc(OCc3cc(F)cc(F)c3)c21` belongs 78 to 84 °C; to `CCNC1=NS(=O)N=C1NCCSCc1ccc(CN(C)C)o1` (stereo not drawn), 68 to 74 °C; to `O=C(Oc1ccc2c(c1)C13CCCCC1N(C2)N(C(=O)C1CC1)CC3)C1CC1` (single isomer, unassigned; (+)), 144 °C.
The result for `COc1c([N+](=O)[O-])cc(C(C)(C)C)cc1[N+](=O)[O-]` reads over 75 °C; that for `CC(CF)(CF)C(=O)NC(CO)c1ccc(C(C)(C)C)cc1` (stereo not drawn), 141 °C.
`COc1ccc(C(=O)NC(N)=NC(=O)Cn2c(Cl)ccc2Cl)cc1` had a melting point of 215 to 217 °C.
To `O=c1cc(O)c2ccc(OCC(O)COc3ccccc3)cc2o1` (stereo not drawn) belongs 145 to 175 °C; to `CC(C)c1noc(C2CCN(c3ccc4oc(-c5ccc(S(C)(=O)=O)cc5F)nc4c3)CC2)n1`, 206 to 209 °C.
For `CCc1ncc(CCCOc2c(C)cc(-c3nnn(C)n3)cc2C)n1C`, the melting point lay in the range of 96 to 98 °C.
Take `Cc1nnc(-c2ccc3occ(C#N)c3c2)o1`: the melting point lay within 188 to 189 °C.
To `Cc1oc2c(C)c(C)c(NCc3ccc(F)cc3)c(C)c2c1-c1ccccc1` belongs 135 to 136 °C; to `CCOc1cn(C)cc(-c2ccc(Cl)c(C(F)(F)F)c2)c1=O`, 158 to 159 °C; to `COc1cccc(C(=O)O)c1N`, 172 to 175 °C.
As to `CCC1=Nc2ccc(OCCN3C(=O)c4ccccc4C3=O)cc2C(=O)C1`, the melting point is 168 to 171 °C.
The molecule `Cc1c(SCCCN2CCN(Cc3ccc(Cl)s3)CC2)ccnc1CSc1nc2cc(F)ccc2[nH]1` showed a melting point of 116 to 119 °C.
The result for `COC(OC)c1ccc2c(c1)C(C)(C)C(=O)CC2(C)C` reads 91 to 92 °C; that for `N#Cc1c(Cl)c(Cl)c(Oc2ccccc2)c(Cl)c1C#N`, 147 to 150 °C; that for `Cc1cc(N2CCN(CCc3ccccc3)C2=O)sc1C(=O)NCc1cccnc1`, 95 to 97 °C.
Take `N#Cc1nccc2cccc(-n3cccc3)c12`: the melting point is 178 °C.
`CC(=NNc1ccc(C2=NNC(=O)CC2C)cc1)c1ccncc1` (stereo not drawn) gave a melting point of 246 to 248 °C.
For the molecule `CCOC(=O)c1csc(/C=C/c2cccc(N)c2)n1`, the melting point fell in the range of 112 to 113 °C.
The result for `Cc1ccc(NC(=O)c2cc(Cl)ccc2NCC2CCN(C3CCSCC3)CC2)nc1` reads 173 to 176 °C; that for `Cc1cc2c(NCc3ccc4c(c3)OCO4)nc(-n3ccnc3)nc2s1`, 162 °C.
To `COc1cc(C(=O)O)ccc1Cn1nc(OC)c2ccc(NC(=O)OC3CCCC3)cc21` belongs 199 to 200 °C.
The result for `Cc1cc(C(=O)Nc2c(NC(=O)CCl)ccc3c2C(=O)c2ccccc2C3=O)c(C)o1` reads 207 to 208 °C; that for `Clc1cccc(Cl)c1Cn1c(-c2ccc3c(c2)OCO3)nc2ccccc21`, 187 to 189 °C; that for `Nc1nc(N)nc(-c2nccc3ccccc23)n1`, over 250 °C.
`Cc1c(SCCCCSCCn2c([N+](=O)[O-])cnc2C)ccnc1CO` registered a melting point of 86 to 87 °C.
To `CCCCc1nn(C(F)(F)F)c(C(=O)O)c1Cc1ccc(C2(C(=O)O)CC=CC2)s1` belongs 134 to 135 °C; to `CN(C)Cc1ccc([C@H]2CC[C@H](O)CC2)cc1`, 63 to 65 °C; to `CC(C)(C)c1ccc(C(O)CCCCC2CCCCC2)cc1C(C(N)=O)C1c2ccccc2Oc2ccccc21` (stereo not drawn), 121 to 122 °C.
With `COC(=O)c1ccc(NC=O)cc1S(=O)(=O)NC(C)(C)C`, the melting point is 113 to 114 °C.
To `CCOC(=O)c1cc2sc(N=CN(C)C)c(C#N)c2s1` belongs 168 °C; to `CC(C)C(O)(CCc1ccc(OCc2ccccc2)cc1)CC(=O)O` (stereo not drawn), 97 to 98 °C; to `O=C(O)COc1ccc2c(=O)c3c(F)cccc3oc2c1`, 180 to 183 °C.
The molecule `CC(C)C1CCC2(C(=O)O)CCC3(C)C(CCC4C5(C)CCC(O)C(C)(C)C5CCC43C)C12` (stereo not drawn) displayed a melting point of 287 to 289 °C.
To `CCC(CC)(CCCS(N)(=O)=O)COc1nn2ccnc2cc1C` belongs 139 to 140 °C; to `CC(C)C(O)(C#C[Si](C)(C)C)c1cncnc1` (stereo not drawn), 117 °C; to `CCc1ccc2oc(-c3ccc(C=C4C(=O)C5(C)CCC4C5(C)C)cc3)nc2c1` (stereo not drawn), 178 to 179 °C.
